Experimental data taken from patent publication US12582614B2, “Composition for preventing, alleviating or treating sarcopenia, containing D-ribo-2-hexulose as active ingredient” (KYUNGPOOK NATIONAL UNIVERSITY INDUSTRY-ACADEMIC COOPERATION …, priority 2021, dated 2026).

Legend:
Format in all cases: in vivo, C57BL/6J male mice
[1] = Liver and erythrocyte H2O2 content and TBARs; conditions: DRH supplementation; increase in NC vs YC
[2] = test system: insulin-like growth factor 1 (IGF-1); experiment: IHC analysis of muscle tissue, IGF-1; conditions: reduction in NC vs YC
Procedure: (§1) For morphological tissue observation, parts of liver and muscle tissues were fixed with a 10% formaldehyde solution for 24 hours. Thereafter, the samples were subjected to replacement with the same solution twice, dehydrated twice with ethanol, embedded in paraffin, and treated with poly-L-lysine to prepare tissue slices having a thickness of 5 μm. For morphological analysis, among the prepared tissue sections, the liver tissue was stained with H&E and MT, and the muscle tissue was stained with H&E and Sirius red, and magnified 200 times under an optical microscope. For IHC analysis, the muscle tissue was stained with IGF-1 and Myostatin, and then observed under an optical microscope.

[3] = test system: CISH, CerS1, Adiponectin, Adipsin, CIDEC, Haptoglobin, Neuronatin, SCD1; experiment: mRNA sequencing of gastrocnemius tissue (differentially expressed genes); conditions: vs NC group, FC cutoff 2 or more, p < 0.05
[4] = test system: myostatin; experiment: IHC analysis of muscle tissue, myostatin; conditions: gastrocnemius muscle fibers, increase in NC vs YC
Procedure: as §1

[5] = Body weight, food intake and organ weights of aged mice fed 3% D-ribo-2-hexulose diet for 12 weeks
Procedure: Twenty-one 48-week-old C57BL/6J male mice and seven 8-week-old C57BL/6J male mice were purchased from JA BIO Inc. (Korea). The purchased animals were raised in a breeding room with a controlled temperature (20 to 23° C.) and a light/dark cycle (a 12-hour cycle), and were provided with pelletized commercial non-purified feed for the first week.
(§2) Specifically, a negative control group (NC, n=7, American Institute of Nutrition AIN-93G Semisynthetic diet); a D-ribo-2-hexulose-treated group (D-ribo-2-hexulose; DRH, n=7; a portion of cellulose in AIN-93G was replaced with 3% D-ribo-2-hexulose). […] The dose of D-ribo-2-hexulose was set at 3% based on previous animal studies. In the previous studies, the dose of D-ribo-2-hexulose was determined to be 3% in order to investigate a biological effect at a lower dose than the dose. During the experiment, the mice had free access to distilled water, and the food intakes and body weights of the mice were measured weekly, and blood glucose was measured once every 4 weeks. All animal experiments were approved by the Animal Research Ethics Committee of KyungPook National University (Approval Number: KNU-2020-109).

[6] = test system: aged mice; experiment: Left hind leg thickness (digital calipers); conditions: week 12, DRH group vs NC group
Procedure: The thicknesses of left hind legs were measured using Bluetec digital calipers (Korea, BLUETEC, BD500) every 4 weeks during the experiment period, and the leg thickness was divided by the body weight of each mouse in order to minimize differences between individuals (mm/100 g× body weight).

[7] = test system: TNF-α; experiment: Western blotting of TNF-α expression; conditions: DRH group vs NC group
Procedure: The amount of cytoplasmic and membrane proteins was quantified according to the Bradford method. Thereafter, a protein load was applied onto a 10% SDS-polyacrylamide gel, transferred to a Tris-glycine electrophoresis buffer for an hour, and then electrophoresed. The positions of the bands were confirmed using a Ponceau solution, blocking (5% skim milk in TBS/0.1% Tween-20) was performed at room temperature for 60 minutes in order to reduce non-specific reactions to the membrane. Then, the samples were reacted with a primary antibody overnight at 4° C. […]

[8] = test system: aged mice; experiment: Weights of quadriceps, anterior tibialis and gastrocnemius tissues; conditions: per 100 g body weight, DRH group vs NC group
Procedure: as §2

[9] = Lipid profiles of muscles and plasma
Procedure: Plasma TG and TC analysis was performed using an enzyme kit (Asan Pharmaceutical Co., Ltd., Korea). Free fatty acid (FFA) was also measured using an enzyme kit (Abcam., USA). Liver and muscle lipids were extracted, and the dried lipid residue was then dissolved in 1 mL of ethanol for the measurement of TG, TC, and FFA. For emulsification, Triton X-100 and a sodium cholate solution were added to 200 μL of the dissolved lipid solution. The TG, TC, and FFA were analyzed in the same kit as the enzyme kit used for plasma lipid analysis.

[10] = DRH group, aged mice, AIN-93G + 3% DRH 12 weeks, Mean ± SD

O=C(CO)[C@H](O)[C@H](O)[C@H](O)CO [DRH, D-ribo-2-hexulose]
liver H2O2 content [1]: significantly reduced | expression level of IGF-1 [2]: improved this reduction | Adiponectin expression (mRNA-seq) [3]: down-regulated | Adipsin expression (mRNA-seq) [3]: down-regulated | CIDEC expression (mRNA-seq) [3]: down-regulated | CISH expression (mRNA-seq) [3]: up-regulated | CerS1 expression (mRNA-seq) [3]: up-regulated | Haptoglobin expression (mRNA-seq) [3]: down-regulated | Neuronatin expression (mRNA-seq) [3]: down-regulated | SCD1 expression (mRNA-seq) [3]: down-regulated | expression level of myostatin [4]: suppressed this increase to the level of the YC group | final body weight ([5]; DRH group vs NC group): significantly lower | kidney weight ([5]; DRH group vs NC group): increased | liver weight ([5]; DRH group vs NC group): decreased | spleen weight ([5]; DRH group vs NC group): no significant difference | weight gain ([5]; DRH group vs NC group): significantly lower | Final BW [5, 10]: 37.59 ± 0.56^$$ g | Total BWG [5, 10]: 1.36 ± 0.20^$$$ g | kidney weight [5, 10]: 1.10 ± 0.02^$$ g per 100 g BW | liver weight [5, 10]: 3.71 ± 0.07^$ g per 100 g BW | spleen weight [5, 10]: 0.20 ± 0.02 ^ g per 100 g BW | thicknesses of the left hind legs [6]: significantly increased | TNF-α expression [7]: significantly decreased | weight of the left anterior tibialis [8]: significantly increased | weights of the right and left quadriceps [8]: significantly increased | muscle fatty acid level ([9]; DRH group vs NC group): no significant difference | muscle total cholesterol (TC) level ([9]; DRH group vs NC group): no significant difference | plasma fatty acids ([9]; DRH group vs NC group): significantly decreased | plasma TC level ([9]; increase in NC vs YC): improved | plasma TG level ([9]; increase in NC vs YC): improved | muscle triglyceride (TG) level ([9]; increase with aging): significantly reduced this increase
